Source: ChEMBL document CHEMBL3734746, “Monoamine oxidase inhibitory activities of heterocyclic chalcones” (Bioorg Med Chem Lett, 2015)

How the values were obtained:
[1] = biological target: T1, Amine oxidase [flavin-containing] B (Homo sapiens, UniProt P27338); test: Inhibition of human MAO-B expressed in baculovirus infected BT1 cells microsome fraction by fluorescence spectrometry
T1 sequence (P27338 whole entry): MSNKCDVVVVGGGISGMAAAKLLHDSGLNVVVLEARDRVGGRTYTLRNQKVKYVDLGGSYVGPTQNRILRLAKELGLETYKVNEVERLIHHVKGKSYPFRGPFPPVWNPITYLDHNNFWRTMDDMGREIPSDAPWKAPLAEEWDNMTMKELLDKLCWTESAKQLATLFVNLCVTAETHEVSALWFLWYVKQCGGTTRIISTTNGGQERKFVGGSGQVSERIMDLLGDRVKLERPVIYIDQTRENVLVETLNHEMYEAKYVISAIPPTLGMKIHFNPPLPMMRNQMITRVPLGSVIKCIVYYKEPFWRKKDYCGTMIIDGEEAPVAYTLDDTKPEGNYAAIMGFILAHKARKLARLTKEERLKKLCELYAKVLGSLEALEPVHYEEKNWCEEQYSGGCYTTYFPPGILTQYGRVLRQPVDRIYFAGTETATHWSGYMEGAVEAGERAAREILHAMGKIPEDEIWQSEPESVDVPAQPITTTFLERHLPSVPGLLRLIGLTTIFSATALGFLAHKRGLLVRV

[2] = biological target: T2, Amine oxidase [flavin-containing] A (Homo sapiens, UniProt P21397); test: Inhibition of human MAO-A expressed in baculovirus infected BT1 cells microsome fraction by fluorescence spectrometry
T2 sequence (P21397 whole entry): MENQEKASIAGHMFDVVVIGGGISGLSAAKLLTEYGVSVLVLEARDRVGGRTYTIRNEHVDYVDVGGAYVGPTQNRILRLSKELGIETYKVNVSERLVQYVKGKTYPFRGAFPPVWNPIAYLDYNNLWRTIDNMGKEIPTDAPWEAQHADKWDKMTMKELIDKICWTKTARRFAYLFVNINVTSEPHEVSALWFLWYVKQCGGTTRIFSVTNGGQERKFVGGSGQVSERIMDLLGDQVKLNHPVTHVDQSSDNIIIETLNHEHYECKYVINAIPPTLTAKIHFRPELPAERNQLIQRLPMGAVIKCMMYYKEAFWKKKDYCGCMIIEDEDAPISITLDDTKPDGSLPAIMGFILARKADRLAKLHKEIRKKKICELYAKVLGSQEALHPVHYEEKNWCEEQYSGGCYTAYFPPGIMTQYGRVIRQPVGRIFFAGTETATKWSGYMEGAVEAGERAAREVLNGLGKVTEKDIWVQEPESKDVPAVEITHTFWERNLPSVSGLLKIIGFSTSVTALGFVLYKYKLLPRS

Homo sapiens = species on record: Homo sapiens; test: Selectivity index, ratio of IC50 for human MAO-A to IC50 for human MAO-B
[3] = biological target: T1, Amine oxidase [flavin-containing] B; test: Reversible inhibition of human MAO-B expressed in baculovirus infected BT1 cells microsome fraction assessed as enzyme activity recovered at 10 times of IC50 concentration preincubated for 30 mins followed by dilution to 0.1 times of IC50 concentration by fluorescence spectrometry; design: scale not given: the % may be the effect or the level left
[4] = biological target: T1, Amine oxidase [flavin-containing] B; test: Reversible inhibition of human MAO-B expressed in baculovirus infected BT1 cells microsome fraction assessed as enzyme activity recovered at 100 times of IC50 concentration preincubated for 30 mins followed by dilution to IC50 concentration by fluorescence spectrometry; design: scale not given: the % may be the effect or the level left
[5] = Cytotoxicity against human HeLa cells assessed as viable cells at 1 uM by MTT assay; format: cell-based; conditions: read-out: Activity
[6] = Cytotoxicity against human HeLa cells assessed as viable cells at 10 uM by MTT assay; format: cell-based; conditions: read-out: Activity
[7] = biological target: T2, Amine oxidase [flavin-containing] A; test: Irreversible inhibition of human MAO-A expressed in baculovirus infected BT1 cells microsome fraction assessed as enzyme activity recovered at 10 times of IC50 concentration preincubated for 30 mins followed by dilution to 0.1 times of IC50 concentration by fluorescence spectrometry; design: scale not given: the % may be the effect or the level left
[8] = biological target: T1, Amine oxidase [flavin-containing] B; test: Reversible inhibition of human MAO-B expressed in baculovirus infected BT1 cells microsome fraction assessed as residual enzyme activity at 4 times of IC50 concentration preincubated for 15 mins followed by dialysis for 24 hrs by fluorescence spectrometry relative to control
[9] = biological target: T1, Amine oxidase [flavin-containing] B; test: Inhibition of human MAO-B expressed in baculovirus infected BT1 cells microsome fraction assessed as residual enzyme activity at 4 times of IC50 concentration for 15 mins by fluorescence spectrometry relative to control; conditions: 0.25 h
[10] = biological target: T2, Amine oxidase [flavin-containing] A; test: Reversible inhibition of human MAO-A expressed in baculovirus infected BT1 cells microsome fraction assessed as enzyme activity recovered at 10 times of IC50 concentration preincubated for 30 mins followed by dilution to 0.1 times of IC50 concentration by fluorescence spectrometry; design: scale not given: the % may be the effect or the level left
[11] = biological target: T2, Amine oxidase [flavin-containing] A; test: Reversible inhibition of human MAO-A expressed in baculovirus infected BT1 cells microsome fraction assessed as enzyme activity recovered at 100 times of IC50 concentration preincubated for 30 mins followed by dilution to IC50 concentration by fluorescence spectrometry; design: scale not given: the % may be the effect or the level left
[12] = Cytotoxicity against human HeLa cells by MTT assay; format: cell-based

SMILES | IC50 [1] [nM] | IC50 [2] [µM] | Ratio IC50 (Homo sapiens) | further results
O=C(/C=C/c1ccc(F)c(Br)c1)c1ccc[nH]1 | 803 | 8.98 | 11 | Activity [3]: 81%; Activity [4]: 60%; viability at 1 µM [5]: 99.4%; viability at 10 µM [6]: 98%
O=C(/C=C/c1ccc(F)c(Br)c1)c1ccc(Cl)s1 | 116 | 10.5 | 91 | 
C#CCN(C)[C@H](C)Cc1ccccc1 [SELEGILINE] |  |  |  | Activity [7]: 1.2%
COc1ccc(C(=O)/C=C/c2ccc(Cl)s2)c(O)c1 | 185 | 9.99 | 54 | 
COc1ccc(C(=O)/C=C/c2cccc(Cl)c2)cn1 | 330 | 15.3 | 46 | 
O=C(/C=C/c1cccc(C(F)(F)F)c1)c1ccc[nH]1 | 1400 | 267 | 191 | 
O=C(/C=C/c1cccc(Cl)c1)c1ccc[nH]1 | 3270 | 143 | 44 | 
C#CCN(C)Cc1ccccc1 [PARGYLINE] |  |  |  | Activity [7]: 1.2%
Cc1ccc(C(=O)/C=C/c2ccc(F)c(Br)c2)s1 | 67 | 16.1 | 240 | Activity [3]: 26%; Activity [4]: 5%; Activity [8]: 83%; Activity [9]: 18%; viability at 1 µM [5]: 104%; viability at 10 µM [6]: 95.7%
O=C(/C=C/c1ccc(C(F)(F)F)cc1)c1ccc[nH]1 | 830 | 3.81 |  | Activity [10]: 90%; Activity [11]: 67%; Activity [3]: 85%; Activity [4]: 32%; viability at 1 µM [5]: 77.5%; viability at 10 µM [6]: 4.66%; CC50 [12]: 28.2 µM
O=C(/C=C/c1ccc(C(F)(F)F)cc1)c1ccc(Cl)s1 | 133 | 7.56 | 57 | 
